Experimental data: ChEMBL document CHEMBL5634129, “Design, synthesis, and structure-activity relationships of a novel class of quinazoline derivatives as coronavirus inhibitors” (Eur J Med Chem, 2023)

How the values were obtained:
[1] = Selectivity index, ratio of TC50 for human NCI-H460 cells infected with HCoV-OC43 to EC50 for HCoV-OC43 infected in human NCI-H460 cells; type: toxicity, cell-based; conditions: read-out: Selectivity Index
[2] = Cytotoxicity in human NCI-H460 cells infected with HCoV-OC43 treated for 72 hrs by CPE inhibition assay; type: toxicity, cell-based; conditions: read-out: TC50
[3] = tested on: Human coronavirus OC43; assay: Antiviral activity against HCoV-OC43 infected in human NCI-H460 cells treated for 72 hrs by CPE inhibition assay; type: functional, organism-based; conditions: Betacoronavirus 1, NCI-H460, 72 h

SMILES | selectivity ratio [1] | CC50 at 72 h [2] [µM] | EC50 [3] [µM]
Fc1ccc2ncnc(Nc3cc(C(F)(F)F)cc(C(F)(F)F)c3)c2c1 | 14.6 | 12.8 | 0.88
CCOC(=O)c1ccc(Nc2ncnc3ccc(Cl)cc23)c(Cl)c1 | – | 32 | > 7.41
O=[N+]([O-])c1ccc(Nc2ncnc3ccc(Cl)cc23)cc1Cl | – | 22.2 | > 2.47
COc1cc(/C=C/c2ccccc2)c(C(=O)O)c(O)c1CC=C(C)C | – | 38.5 | 22.2
Clc1ccc2ncnc(Nc3ccccc3Cl)c2c1 | – | 96.2 | > 22.2
CCOc1ccc2nc(NC3CC3)nc(Nc3cc(C(F)(F)F)cc(C(F)(F)F)c3)c2c1 | 15.5 | 4.81 | 0.31
COc1ccc2ncnc(Nc3cc(C(F)(F)F)ccc3F)c2c1 | – | 15.4 | > 6.17
O=[N+]([O-])c1ccc(Nc2ncnc3ccc(Cl)cc23)cc1 | – | 46.2 | > 7.41
COc1ccc2ncnc(Nc3cccc(C#N)c3)c2c1 | – | 388 | > 55.6
O=C(O)c1ccc(Nc2ncnc3ccc(Cl)cc23)c(Cl)c1 | – | 96.2 | > 22.2
CCOc1ccc2nc(NC3CCCC3)nc(Nc3cc(C(F)(F)F)cc(C(F)(F)F)c3)c2c1 | – | 12.8 | > 6.17
COC(=O)c1cc(F)cc(Nc2ncnc3ccc(OC)cc23)c1 | – | 388 | > 55.6
CCOc1ccc2nc(NC(C)CCCN(CC)CC)nc(Nc3cc(C(F)(F)F)cc(C(F)(F)F)c3)c2c1 (configuration not stated) | – | 3.56 | > 2.06
FC(F)(F)c1cc(CNc2ncnc3ccc(Cl)cc23)cc(C(F)(F)F)c1 | – | 388 | 9.98
COc1ccc2ncnc(Nc3cc(C(F)(F)F)cc(C(F)(F)F)c3)c2c1 | – | 96.2 | 1.14
Clc1ccc(Nc2ncnc3ccc(Cl)cc23)c(Cl)c1 | – | 15.4 | > 7.41
CCOC(=O)c1ccc(Nc2ncnc3ccc(Cl)cc23)cc1 | – | 38.5 | > 7.41
COc1ccc2ncnc(N3CCN(c4cc(C(F)(F)F)cc(C(F)(F)F)c4)C(=O)C3)c2c1 | – | 240 | 6.17

SMILES | selectivity ratio [1] | CC50 at 72 h [2] [µM] | EC50 [3] [µM]
CCOC(=O)c1c(/C=C/c2ccccc2)cc(OC)c(CC=C(C)C)c1O | – | > 200 | 139
Cc1ccc(Nc2ncnc3ccc(Cl)cc23)c(Cl)c1 | – | 28.6 | > 7.41
Clc1ccc2ncnc(NCCN3CCOCC3)c2c1 | – | > 200 | 155
CN1CCN(CCNc2ncnc3ccc(Cl)cc23)CC1 | – | > 200 | > 66.7
CN(C)c1ccc(Nc2ncnc3ccc(Cl)cc23)c(Cl)c1 | – | 4.28 | > 2.47
CN(C)c1ccc(Nc2ncnc3ccc(Cl)cc23)cc1Cl | – | 4.28 | > 2.47
Fc1ccc(Nc2ncnc3ccc(Cl)cc23)cc1 | – | 15.4 | > 7.41
N#Cc1ccc(Nc2ncnc3ccc(Cl)cc23)cc1 | – | 28.6 | > 7.41
CCN(CC)CCCC(C)Nc1ncnc2ccc(Cl)cc12 (configuration not stated) | – | > 200 | > 200
COc1ccc(Nc2ncnc3ccc(Cl)cc23)cc1 | – | 12.8 | > 7.41
N#Cc1ccc(Nc2ncnc3ccc(Cl)cc23)c(Cl)c1 | – | 46.2 | > 22.2
CC/C=C/c1cc(OC)c(CC=C(C)C)c(O)c1C(=O)O | – | 46.2 | > 22.2
Clc1ccc2ncnc(Nc3ccc(Br)cc3)c2c1 | – | 5.14 | > 2.47
COc1cc(/C=C/c2ccc(F)cc2)c(C(=O)O)c(O)c1CC=C(C)C | – | 38.5 | 12.8
Clc1ccc(Nc2ncnc3ccc(Cl)cc23)cc1 | – | 12.8 | > 7.41
O=[N+]([O-])c1cnc(Nc2ncnc3ccc(Cl)cc23)nc1 | – | 139 | > 66.7
O=[N+]([O-])c1ccc(CNc2ncnc3ccc(Cl)cc23)cc1 | – | 167 | 55.6
